Test results from patent US9249104B2, “Pyrazole indanyl carboxamides” (BAYER CROPSCIENCE AG, priority 2012, dated 2016).

What was measured:
Septoria tritici = assay: In vivo preventive test on Septoria tritici (leaf spot on wheat); conditions: 500 ppm, wheat plants sprayed 24 h before contamination, graded 24 days after contamination
Protocol: Wheat plants (“Scipion” variety), sown in starter cups on a 50/50 peat soil-pozzolana substrate and grown at 22° C., are treated at the 1-leaf stage (10 cm height) by spraying with the active ingredient prepared as described above. Plants, used as controls, are treated with the mixture of acetone/tween/DMSO/water not containing the active material. After 24 hours, the plants are contaminated by spraying the leaves with an aqueous suspension of cryopreserved Septoria tritici spores (500 000 spores per ml). The contaminated wheat plants are incubated for 72 hours at 18° C. and at 100% relative humidity, and then for 21 days at 90% relative humidity. Grading (% of efficacy) is carried out 24 days after the contamination, in comparison with the control plants.

Uromyces appendiculatus = assay: In vivo preventive test on Uromyces appendiculatus (bean rust); conditions: bean plants
Protocol: Bean plants (“Saxa” variety), sown in starter cups on a 50/50 peat soil-pozzolana substrate and grown at 24° C., are treated at the 2-leaf stage (9 cm height) by spraying with the active ingredient prepared as described above. Plants, used as controls, are treated with the mixture of acetone/tween/DMSO/water not containing the active material. After 24 hours, the plants are contaminated by spraying the leaves with an aqueous suspension of Uromyces appendiculatus spores (150 000 spores per ml). The spores are collected from infected plants and are suspended in water containing 2.5 ml/1 of Tween 80 at 10%. […] Grading (% of efficacy) is carried out 11 days after the contamination, in comparison with the control plants.

Puccinia recondita = assay: In vivo preventive test on Puccinia recondita (brown rust on wheat); conditions: graded 12 days after contamination
Protocol: Wheat plants (“Scipion” variety), sown in starter cups on a 50/50 peat soil-pozzolana substrate and grown at 22° C., are treated at the 1-leaf stage (10 cm height) by spraying with the active ingredient prepared as described above. Plants, used as controls, are treated with the mixture of acetone/tween/DMSO/water not containing the active material. After 24 hours, the plants are contaminated by spraying the leaves with an aqueous suspension of Puccinia recondita spores (100 000 spores per ml). The spores are collected from an infected plant and are suspended in water to containing 2.5 ml/l of Tween 80 at 10%. […] Grading (% of efficacy) is carried out 12 days after the contamination, in comparison with the control plants.

[1] = logP by HPLC on reversed phase columns (EEC directive 79/831 Annex V.A8); format: physicochemical; conditions: for logP: method [a]: LC-MS at pH 2.7, 0.1% formic acid in water / acetonitrile, compounds of formula (I), Table 1; for chromatographic logP: pH 2.7
Sphaerotheca fuliginea = assay: In vivo preventive test on Sphaerotheca fuliginea (powdery mildew on cucurbits); conditions: graded 12 days after contamination
Protocol: Gherkin plants (“Vert petit de Paris” variety), sown in starter cups on a 50/50 peat soil-pozzolana substrate and grown at 24° C., are treated at the Z11 cotyledon stage by spraying with the active ingredient prepared as described above. Plants, used as controls, are treated with the mixture of acetone/tween/DMSO/water not containing the active material. After 24 hours, the plants are contaminated by spraying the cotyledons with an aqueous suspension of Sphaerotheca fuliginea spores (100 000 spores per ml). The spores are collected from infected plants. […] Grading (% of efficacy) is carried out 12 days after the contamination, in comparison with the control plants.

Alternaria brassicae = assay: In vivo preventive test on Alternaria brassicae (leaf spot on radish); conditions: 500 ppm, radish plants sprayed 24 h before contamination, graded 6 days after contamination
Protocol: Radish plants (“Pernod Clair” variety), sown in starter cups on a 50/50 peat soil-pozzolana substrate and grown at 17° C., are treated at the cotyledon stage by spraying with the active ingredient prepared as described above. Plants, used as controls, are treated with the mixture of acetone/tween/DMSO/water not containing the active material. After 24 hours, the plants are contaminated by spraying the cotyledons with an aqueous suspension of Alternaria brassicae spores (50 000 spores per ml). The spores are collected from a 15-day-old culture. The contaminated radish plants are incubated at 20° C. and at 100% relative humidity. Grading (% of efficacy) is carried out 6 days after the contamination, in comparison with the control plants.

Pyrenophora teres = assay: In vivo preventive test on Pyrenophora teres (net blotch on barley); conditions: graded 14 days after contamination
Protocol: Barley plants (“Plaisant” variety), sown in starter cups on a 50/50 peat soil-pozzolana substrate and grown at 22° C., are treated at the 1-leaf stage (10 cm height) by spraying with the active ingredient prepared as described above. Plants, used as controls, are treated with the mixture of acetone/tween/DMSO/water not containing the active material. After 24 hours, the plants are contaminated by spraying the leaves with an aqueous suspension of Pyrenophora teres spores (12 000 spores per ml). The spores are collected from a 12-day-old culture. […] Grading (% of efficacy) is carried out 14 days after the contamination, in comparison with the control plants.

[2] = preventive, dose of 500 ppm, grading 11 days after contamination
[3] = 500 ppm, wheat plants sprayed 24 h before contamination
[4] = 500 ppm, gherkin plants sprayed 24 h before contamination
[5] = 500 ppm, barley plants sprayed 24 h before contamination
[6] = 100 ppm, graded 11 days after contamination

logP [1] | chromatographic logP [1] | Compound | Eff. % (Septoria tritici) | Eff. % (Uromyces appendiculatus; [2]) | Eff. % (Puccinia recondita; [3]) | Eff. % (Sphaerotheca fuliginea; [4]) | Eff. % (Alternaria brassicae) | Eff. % (Pyrenophora teres; [5]) | Eff. % (Uromyces appendiculatus; [6]) | Eff. % (Puccinia recondita; 100 ppm, wheat plants) | Eff. % (Pyrenophora teres; 100 ppm, barley plants) | Eff. % (Sphaerotheca fuliginea; 100 ppm, gherkin plants)
3.21[a] |  | Cn1cc(C(=O)Nc2cccc3c2CC(C)(C)C3)c(C(F)F)n1 [Example 45] | 97% | 100% | 98% | 100% |  |  |  |  |  | 
3.72[a] |  | CC1c2cccc(NC(=O)c3cn(C)nc3C(F)(F)F)c2CC1(C)C (centres unmarked) [Example 52] | 94% | 100% | 100% | 98% |  |  |  |  |  | 
4.51[a] |  | CCC1Cc2c(NC(=O)c3c(C(F)(F)F)nn(C)c3F)cccc2C1(C)C (centres unmarked) [Example 50] |  | 100% | 98% | 98% | 88% |  |  |  |  | 
4.32[a] |  | CCC1Cc2c(NC(=O)c3c(C)nn(C)c3Cl)cccc2C1(C)C (racemic) [Example 68] |  | 100% | 100% |  | 75% |  |  |  |  | 
3.55[a] |  | CCC1Cc2c(NC(=O)c3c(C)nn(C)c3C)cccc2C1(C)C (centres unmarked) [Example 38] |  | 100% | 100% |  | 80% |  |  |  |  | 
4.27[a] |  | CCC1(CC)Cc2c(NC(=O)c3cn(C)nc3C(F)F)cccc2C1C (racemic) [Example 79] | 98% | 100% | 98% | 100% | 95% |  |  |  |  | 
4.76[a] |  | Cc1nn(C)c(Cl)c1C(=O)Nc1cccc2c1CC(C(C)C)C2(C)C (racemic) [Example 69] |  | 100% | 88% | 72% |  | 75% |  |  |  | 
 | 3.96 | CC1c2cccc(NC(=O)c3cn(C)nc3C(F)F)c2CC12CCCC2 (centres unmarked) [Example 10, 3-(difluoromethyl)-1-methyl-N-(1′-methyl-1′,3′-dihydrospiro[cyclopentane-1,2′-inden]-4′-yl)-1H-pyrazole-4-carboxamide] | 100% | 100% | 97% | 100% | 93% | 83% |  |  |  | 
3.64[a] |  | CC1Cc2c(NC(=O)c3cn(C)nc3I)cccc2C1(C)C (racemic) [Example 75] | 79% | 100% | 98% | 78% |  |  |  |  |  | 
 |  | CC(C)CC1Cc2cccc(NC(=O)c3cn(C)nc3C(F)F)c2C1 (centres unmarked) [Example 4] | 85% | 100% | 93% | 70% | 93% |  |  |  |  | 
3.76[a] |  | CC1c2c(NC(=O)c3cn(C)nc3C(F)(F)F)cccc2C(C)(C)C1C (centres unmarked) [Example 31] | 79% | 100% | 94% | 72% | 80% |  |  |  |  | 
2.94[a] |  | [2H]C1(C)Cc2cccc(NC(=O)c3cn(C)nc3C(F)F)c2C1 (centres unmarked) [Example 26] | 100% | 100% | 100% | 89% |  |  |  |  |  | 
4.82[a] |  | CC(C)C1Cc2c(NC(=O)c3c(C(F)(F)F)nn(C)c3F)cccc2C1(C)C (racemic) [Example 66] |  | 100% | 98% | 98% | 79% | 83% |  |  |  | 
3.74[a] |  | Cn1cc(C(=O)Nc2cccc3c2CC2(CCCC2)C3)c(C(F)F)n1 [Example 25] |  | 100% | 94% | 95% | 71% | 71% |  |  |  | 
 |  | CON=C1c2cccc(NC(=O)c3cn(C)nc3C(F)F)c2CC1(C)C (mixture of isomers) [Example 32] | 100% |  | 93% | 98% | 75% |  |  |  |  | 
3.74[a] |  | CC1c2cccc(NC(=O)c3cn(C)nc3C(F)(F)F)c2CC1(C)C (centres unmarked) [Example 15] |  | 100% | 96% | 100% | 86% |  |  |  |  | 
3[a] |  | Cc1c(C(=O)Nc2cccc3c2CC(C)C3(C)C)cnn1C (racemic) [Example 71] | 97% | 79% | 81% |  |  |  |  |  |  | 
4.27[a] |  | CC(C)C1Cc2c(NC(=O)c3cn(C)nc3C(F)F)cccc2C1(C)C (centres unmarked) [Example 39] | 71% | 100% | 98% | 100% | 98% |  |  |  |  | 
3.37[a] |  | CCc1c(C(=O)Nc2cccc3c2CC(C)C3(C)C)cnn1C (centres unmarked) [Example 20] | 97% |  |  |  | 97% | 100% |  |  |  | 
 | 4.54 | CC(C)C1Cc2c(NC(=S)c3cn(C)nc3C(F)F)cccc2C1(C)C (centres unmarked) [Example 77, 3-(difluoromethyl)-N-(2-isopropyl-1,1-dimethyl-2,3-dihydro-1H-inden-4-yl)-1-methyl-1H-pyrazole-4-carbothioamide] |  |  |  |  |  |  | 100% | 100% | 100% | 100%
4.78[a] |  | CC(C)C1Cc2c(NC(=S)c3cn(C)nc3C(F)(F)F)cccc2C1(C)C (racemic) [Example 86] |  |  |  |  |  |  | 100% | 100% | 100% | 100%
4.46[a] |  | CCC1(CC)Cc2c(NC(=O)c3cn(C)nc3C(F)(F)F)cccc2C1C (racemic) [Example 74] | 94% | 100% | 98% | 98% |  |  |  |  |  | 
4.46[a] |  | CC(C)C1Cc2c(NC(=O)c3cn(C)nc3C(F)(F)F)cccc2C1(C)C (centres unmarked) [Example 40] | 93% | 100% | 98% | 100% | 89% |  |  |  |  | 
3.96[a] |  | CCC1Cc2c(NC(=O)c3cn(C)nc3C(F)F)cccc2C1(C)C (centres unmarked) [Example 36] | 86% | 100% | 98% | 100% |  | 75% |  |  |  | 
3.81[a] |  | Cn1cc(C(=O)Nc2cccc3c2CC2CCCCC32)c(C(F)F)n1 (centres unmarked) [Example 24] |  | 100% | 89% |  |  | 86% |  |  |  | 
 |  | CON=C1c2cccc(NC(=O)c3cn(C)nc3C(F)(F)F)c2CC1(C)C (mixture of isomers) [Example 30] | 100% |  | 86% | 98% |  |  |  |  |  | 
4.34[a] |  | Cc1nn(C)c(F)c1C(=O)Nc1cccc2c1CC(C(C)C)C2(C)C (centres unmarked) [Example 41] | 71% | 100% | 100% | 100% | 78% |  |  |  |  | 
